In patent US20240194290A1, “HIDDEN ANTIBIOTICS IN THE HUMAN PROTEOME” (THE TRUSTEES OF THE UNIVERSITY OF PENNSYLVANIA, priority 2021, published 2024):
Ends that are not written are not given here.

Assays:
A. baumannii ATCC19606 = assay: Skin abscess infection mouse model; assay type: in vivo, Acinetobacter baumannii; details: for anti-infective activity (FIG. 4B): 25 μmol L^−1, A. baumannii ATCC19606; for reduction of bacterial load / bacterial counts: mice, single dose 25 μmol L^−1 to infected area, A. baumannii
Source text: (§1) FIG. 4. Anti-infective activity and synergistic interactions of encrypted peptides in vivo. (FIG. 4A) Schematic of the skin abscess mouse model used to assess the anti-infective activity of selected encrypted peptides from plasma proteins. […] (FIG. 4C) Mouse weight was monitored throughout the experiment (2 days) to rule out potential toxic effects of the encrypted peptides. (FIG. 4D) Schematic of the neutropenic thigh infection mouse model used to assess the anti-infective activity of selected encrypted peptides from plasma proteins. […] (FIG. 4F) Mouse weight was monitored throughout the experiment (8 days) to rule out potential toxic effects of the encrypted peptides.
(§2) To test whether the peptides retain their antimicrobial activity in a complex living system, their properties in two mouse models were assessed. […] Since these peptides are mostly found in plasma, a relevant skin abscess mouse model was used to test their anti-infective activity (FIG. 4A). Mice were infected with bacterial loads of 10^5 and 10^6 cells in 20 μL of the clinically relevant Gram-negative pathogens P. aeruginosa and A. baumannii, respectively (FIG. 4B). […] In order to validate the synergistic effects obtained in vitro (FIG. 3D and FIG. 9), infected mice were treated with combinations of encrypted peptides (FIG. 4B). […] No damage or deleterious effects exerted by the peptides were detected in the mice in any of our experiments.
(§3) Methods: Skin abscess infection mouse model. A. baumannii ATCC19606 and P. aeruginosa strain PAO1 were used to infect the murine skin. Briefly, bacteria were grown in tryptic soy broth (TSB) medium. Subsequently, cells were washed twice with sterile PBS (pH 7.4, 13,000 rpm for 1 min), and resuspended to a final concentration of 1×10^5 and 1×10^6 CFU/20 μL for A. baumannii and P. aeruginosa, respectively. Female CD-1 mice (six-weeks old) were anesthetized with isoflurane and had their backs shaved and a superficial linear skin abrasion was made with a needle in order to damage the stratum corneum and upper-layer of the epidermis. An aliquot of 20 μL containing the bacterial load in PBS was inoculated over each defined area containing the scratch with a pipette tip. […] Animals were euthanized and the area of scarified skin was excised two- and four-days post-infection, homogenized using a bead beater for 20 minutes (25 Hz), and 10-fold serially diluted for CFU quantification. […] Prior to each injection, mice were anesthetized with isoflurane and monitored (respiratory rate and pedal reflexes). Next, we monitored the formation of the abscess and euthanized the mice. The infected area was excised three-days post-infection, homogenized using a bead beater for 20 min (25 Hz), and 10-fold serially diluted for CFU quantification. […]

[1] = test system: Gram-negative gut commensals (A. muciniphila and Bacteroidetes species); assay: Antibacterial assay against Gram-negative gut commensals; assay type: cell-based
Source text: The 13 most abundant members of the human gut microbiota^15 were exposed to increasing concentrations of the peptides. Species from four different phyla were used to determine susceptibility to the encrypted peptides: Akkermansia muciniphila (Verrucomicrobia); Bacteroides fragilis, Bacteroides thetaiotaomicron, Bacteroides vulgatus, Bacteroides uniformis, Bacteroides eggerthi, Parabacteroidetes distasonis, and Prevotella copri (Bacteroidetes); Collinsella aerofaciens (Actinobacteria); and Clostridium scindens and Clostridium spiroforme (Firmicutes).
Methods: Bacterial strains and media. […] Minimum inhibitory concentrations (MICs) of peptides were determined using the broth microdilution technique in LB, NB and supplemented BHI with an initial inoculum of 5×10^6 cells in nontreated polystyrene microtiter plates (Corning, USA). […]

P. aeruginosa PAO1 [2] = assay: Skin abscess infection mouse model; assay type: in vivo, Pseudomonas aeruginosa; details: for anti-infective activity (FIG. 4B): 25 μmol L^−1, P. aeruginosa PAO1; for reduction of bacterial load / bacterial counts: mice, single dose 25 μmol L^−1 to infected area, P. aeruginosa
Source text: as §1, §2, §3

P. aeruginosa PAO1 [3] = assay: Neutropenic thigh infection mouse model; assay type: in vivo, Pseudomonas aeruginosa; details: for anti-infective activity (FIG. 4E): alone, P. aeruginosa PAO1; for decrease of bacterial counts compared to untreated controls: mice, 25 μmol L^−1 intramuscular, three days post-treatment, P. aeruginosa
Source text: as §1
Next, the efficacy of the same encrypted peptides (SCUB1-SKE25 and SCUB3-MLP22) was assessed in monotherapy and in combination therapy in a murine thigh infection model (FIG. 4D). This preclinical model is sensitive, standardized, and widely used for assessing antibiotic translatability^43,44. Briefly, mice were rendered neutropenic by cyclophosphamide treatment prior to intramuscular infection with 10^6 cells mL^−1 of the bacterial pathogens P. aeruginosa and A. baumannii (FIG. 4E). Either a single dose of each encrypted peptide (at 25 μmol L^−1) or their combination (also at 25 μmol L^−1) were delivered to the infected site via intramuscular administration. Three days post-treatment, on average the peptides reduced the bacterial load of P. aeruginosa and A. baumannii by 4 and 2 orders of magnitude, respectively, compared to untreated mice.
as §3, with “epidermis.” for “epidermis. An aliquot of 20 μL containing the bacterial load in PBS was inoculated over each defined area containing the scratch with a pipette tip.”

| Sequence | anti-infective activity (FIG. 4B) (A. baumannii ATCC19606) | reduction of bacterial load / bacterial counts (A. baumannii ATCC19606) | activity against Gram-negative gut commensals [1] | anti-infective activity (FIG. 4B) (P. aeruginosa PAO1 [2]) | reduction of bacterial load / bacterial counts (P. aeruginosa PAO1 [2]) | anti-infective activity (FIG. 4E) (P. aeruginosa PAO1 [3]) | decrease of bacterial counts compared to untreated controls (P. aeruginosa PAO1 [3]) |
| --- | --- | --- | --- | --- | --- | --- | --- |
| MLPKSFIKLLRSKVSSFLRPYK [SCUB3-MLP22] | inhibitory activity | 3 orders of magnitude | potent activity | inhibitory activity | 3 orders of magnitude | reduced infections | 3 orders of magnitude |
| SKEMFPRSFIKLLRSKVSRFLRPYK [SCUB1-SKE25] | inhibitory activity | 3 orders of magnitude | potent activity | inhibitory activity | 3 orders of magnitude | reduced infections | 3 orders of magnitude |
